Test results from ChEMBL document CHEMBL1201862, “PubChem BioAssay data set” (2004).
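The compound was tested at five concentrations on cells cultured in 96-well plates, with a 48-hour exposure period. GI50: concentration for 50% inhibition of growth.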 Active and inactive are the calls of the source. No stated cut-off is given here; in the data, active = GI50 up to about 1.1 µM and inactive = higher.

Key:
Test in all cases: NCI anticancer screen, dose series, 48 h
MOLT-4 = test system: MOLT-4
CAKI-1 = test system: CAKI-1
SF-539 = test system: SF-539
RXF 393 = test system: RXF 393
DU-145 = test system: DU-145
NCI/ADR-RES = test system: NCI/ADR-RES
SNB-19 = test system: SNB-19
MDA-MB-231 = test system: MDA-MB-231
UO-31 = test system: UO-31
NCI-H460 = test system: NCI-H460
SNB-75 = test system: SNB-75
SK-MEL-28 = test system: SK-MEL-28
SK-MEL-5 = test system: SK-MEL-5
HCC 2998 = test system: HCC 2998
HL-60 = test system: HL-60
K562 = test system: K562
SK-MEL-2 = test system: SK-MEL-2
PC-3 = test system: PC-3
Hs-578T = test system: Hs-578T
MCF7 = test system: MCF7

Row | SMILES | GI50 (MOLT-4) | GI50 (CAKI-1) | GI50 (SF-539) | GI50 (RXF 393) | GI50 (DU-145) | GI50 (NCI/ADR-RES) | GI50 (SNB-19) | GI50 (MDA-MB-231) | GI50 (UO-31) | GI50 (NCI-H460) | GI50 (SNB-75) | GI50 (SK-MEL-28) | GI50 (SK-MEL-5) | GI50 (HCC 2998) | GI50 (HL-60) | GI50 (K562) | GI50 (SK-MEL-2) | GI50 (PC-3) | GI50 (Hs-578T) | GI50 (MCF7)
1 | Cc1cnc(Cl)nc1C(C#N)c1nc2ccccc2n1C (configuration not stated) | > 100 µM (inactive) | 95.3 µM (inactive) | 31 µM (inactive) | 58.9 µM (inactive) | > 100 µM (inactive) | 56.1 µM (inactive) | 41.6 µM (inactive) | > 100 µM (inactive) | > 100 µM (inactive) | 46.1 µM (inactive) | 10.1 µM (inactive) | 93.1 µM (inactive) | > 100 µM (inactive) | – | – | – | – | – | – | –
2 | CCN(CC)CCNc1ccc2ncn3c4cc(O)ccc4c(=O)c1c23 | 0.668 µM (active) | 3.05 µM (inactive) | 3.25 µM (inactive) | 0.536 µM (active) | – | – | 3.9 µM (inactive) | – | 5.71 µM (inactive) | 3.04 µM (inactive) | 4.39 µM (inactive) | 4.73 µM (inactive) | 3.66 µM (inactive) | 3.84 µM (inactive) | 2.84 µM (inactive) | 2.11 µM (inactive) | 8.59 µM (inactive) | – | – | –
3 | c1cnc2c(c1)-n1cccc1C1(CCOCC1)NN2 | > 100 µM (inactive) | > 100 µM (inactive) | > 100 µM (inactive) | > 100 µM (inactive) | – | – | > 100 µM (inactive) | – | > 100 µM (inactive) | > 100 µM (inactive) | > 100 µM (inactive) | > 100 µM (inactive) | > 100 µM (inactive) | > 100 µM (inactive) | > 100 µM (inactive) | > 100 µM (inactive) | > 100 µM (inactive) | – | – | –
4 | COC1/C=C\C=C(/C)C(=O)Nc2cc3nc4ccc(Br)cc4oc-3c(c2=O)CC(C)CC(OC)C(O)C(C)/C=C(\C)C1OC(N)=O (configuration not stated) | < 0.0103 µM (active) | 0.292 µM (active) | 0.44 µM (active) | < 0.0112 µM (active) | 0.0458 µM (active) | – | 13 µM (inactive) | 0.00849 µM (active) | 0.12 µM (active) | 0.63 µM (active) | 7.08 µM (inactive) | 0.0137 µM (active) | 0.178 µM (active) | 0.126 µM (active) | 0.0128 µM (active) | 0.01 µM (active) | 0.0741 µM (active) | 0.931 µM (active) | 0.0628 µM (active) | 0.000752 µM (active)
5 | Fc1ccc2c(c1)cc1ccc3cccc4ccc2c1c34 | > 100 µM (inactive) | > 100 µM (inactive) | > 100 µM (inactive) | > 100 µM (inactive) | – | – | > 100 µM (inactive) | – | > 100 µM (inactive) | – | > 100 µM (inactive) | > 100 µM (inactive) | > 100 µM (inactive) | > 100 µM (inactive) | > 100 µM (inactive) | > 100 µM (inactive) | > 100 µM (inactive) | – | – | –
6 | CC(=O)Nc1ccccc1S(=O)(=O)c1ccccc1 | > 100 µM (inactive) | > 100 µM (inactive) | > 100 µM (inactive) | > 100 µM (inactive) | – | – | > 100 µM (inactive) | – | > 100 µM (inactive) | > 100 µM (inactive) | > 100 µM (inactive) | > 100 µM (inactive) | > 100 µM (inactive) | > 100 µM (inactive) | > 100 µM (inactive) | > 100 µM (inactive) | > 100 µM (inactive) | – | – | –
7 | COc1cc(C2c3cc4c(cc3[C@@H](Nc3ccccc3)C3COC[C@H]23)OCO4)cc(OC)c1O (some centres not stated) | 0.0665 µM (active) | – | 1.26 µM (inactive) | – | – | 10.9 µM (inactive) | 1.69 µM (inactive) | 1.64 µM (inactive) | 1.15 µM (inactive) | 0.148 µM (active) | 2.23 µM (inactive) | 5.77 µM (inactive) | 2.3 µM (inactive) | 5.83 µM (inactive) | 0.573 µM (active) | 1.8 µM (inactive) | – | 3.33 µM (inactive) | 0.736 µM (active) | 0.512 µM (active)
8 | Nn1c(CCCCCCCCc2nnc(COc3ccc4ccccc4c3O)n2N)nnc1COc1ccc2ccccc2c1O | 14.9 µM (inactive) | 18.2 µM (inactive) | – | 26.1 µM (inactive) | 33.8 µM (inactive) | 17.5 µM (inactive) | 30 µM (inactive) | 23.2 µM (inactive) | 28.4 µM (inactive) | 29 µM (inactive) | 51.1 µM (inactive) | 32.4 µM (inactive) | 20.1 µM (inactive) | 25.2 µM (inactive) | – | 41.7 µM (inactive) | 32.1 µM (inactive) | 26.7 µM (inactive) | – | 27.2 µM (inactive)
9 | COc1cc2c(cc1OCCCN1C(=O)c3cccc4cccc(c34)C1=O)N=C[C@@H]1CCCN1C2=O | 14 µM (inactive) | 25.4 µM (inactive) | 83.6 µM (inactive) | 14.9 µM (inactive) | 46.1 µM (inactive) | 41.8 µM (inactive) | > 92 µM (inactive) | > 55.8 µM (inactive) | 22.5 µM (inactive) | 22.3 µM (inactive) | – | > 65.9 µM (inactive) | 20.4 µM (inactive) | > 63.7 µM (inactive) | – | 22.5 µM (inactive) | 65.5 µM (inactive) | 44.8 µM (inactive) | – | 2.47 µM (inactive)
